The source made the active and inactive calls. The rule behind the calls is not given here.
How the values were obtained:
K562 = assay: Antiproliferative activity against human K562 cells after 72 hrs by CCK8 assay; format: functional
A549 = assay: Antiproliferative activity against human A549 cells after 72 hrs by CCK8 assay; format: functional
NCI-H1975 = assay: Antiproliferative activity against human NCI-H1975 cells after 72 hrs by CCK8 assay; format: functional
[1] = target: Serine/threonine-protein kinase PLK2 (Homo sapiens, UniProt Q9NYY3); assay: Inhibition human recombinant full length GST-tagged Plk2 expressed in baculovirus expression system after 1 hr by FRET-based Z'-Lyte assay
Chain of Serine/threonine-protein kinase PLK2 (Q9NYY3 whole entry): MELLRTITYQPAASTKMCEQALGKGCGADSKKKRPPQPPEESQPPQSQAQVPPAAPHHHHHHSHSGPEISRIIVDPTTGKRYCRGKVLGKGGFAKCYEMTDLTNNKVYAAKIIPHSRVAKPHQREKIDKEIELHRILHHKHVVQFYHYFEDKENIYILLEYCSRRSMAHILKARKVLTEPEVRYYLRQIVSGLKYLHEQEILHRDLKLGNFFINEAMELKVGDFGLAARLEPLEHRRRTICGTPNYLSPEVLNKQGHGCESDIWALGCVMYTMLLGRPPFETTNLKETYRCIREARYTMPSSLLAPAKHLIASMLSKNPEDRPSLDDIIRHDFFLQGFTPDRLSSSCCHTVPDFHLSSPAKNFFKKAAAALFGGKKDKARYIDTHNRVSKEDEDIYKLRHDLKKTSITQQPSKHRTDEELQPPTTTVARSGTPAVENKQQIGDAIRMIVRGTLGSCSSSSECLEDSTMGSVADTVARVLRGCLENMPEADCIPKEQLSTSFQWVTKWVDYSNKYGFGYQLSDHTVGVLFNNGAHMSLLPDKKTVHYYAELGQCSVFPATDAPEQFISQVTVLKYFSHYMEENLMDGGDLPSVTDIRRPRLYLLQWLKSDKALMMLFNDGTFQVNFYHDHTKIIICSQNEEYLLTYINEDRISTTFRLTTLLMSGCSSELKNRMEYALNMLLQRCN

MCF7 = assay: Antiproliferative activity against human MCF7 cells after 72 hrs by CCK8 assay; format: functional
Huh-7 = assay: Antiproliferative activity against human HuH7 cells after 72 hrs by CCK8 assay; format: functional
HeLa = assay: Antiproliferative activity against human HeLa cells after 72 hrs by CCK8 assay; format: functional
[2] = target: Serine/threonine-protein kinase PLK3 (Homo sapiens, UniProt Q9H4B4); assay: Inhibition human recombinant GST-tagged Plk3 catalytic domain (58 to 340 residues) expressed in baculovirus expression system after 1 hr by FRET-based Z'-Lyte assay
Chain of Serine/threonine-protein kinase PLK3 (Q9H4B4 whole entry, the tested form may be a part): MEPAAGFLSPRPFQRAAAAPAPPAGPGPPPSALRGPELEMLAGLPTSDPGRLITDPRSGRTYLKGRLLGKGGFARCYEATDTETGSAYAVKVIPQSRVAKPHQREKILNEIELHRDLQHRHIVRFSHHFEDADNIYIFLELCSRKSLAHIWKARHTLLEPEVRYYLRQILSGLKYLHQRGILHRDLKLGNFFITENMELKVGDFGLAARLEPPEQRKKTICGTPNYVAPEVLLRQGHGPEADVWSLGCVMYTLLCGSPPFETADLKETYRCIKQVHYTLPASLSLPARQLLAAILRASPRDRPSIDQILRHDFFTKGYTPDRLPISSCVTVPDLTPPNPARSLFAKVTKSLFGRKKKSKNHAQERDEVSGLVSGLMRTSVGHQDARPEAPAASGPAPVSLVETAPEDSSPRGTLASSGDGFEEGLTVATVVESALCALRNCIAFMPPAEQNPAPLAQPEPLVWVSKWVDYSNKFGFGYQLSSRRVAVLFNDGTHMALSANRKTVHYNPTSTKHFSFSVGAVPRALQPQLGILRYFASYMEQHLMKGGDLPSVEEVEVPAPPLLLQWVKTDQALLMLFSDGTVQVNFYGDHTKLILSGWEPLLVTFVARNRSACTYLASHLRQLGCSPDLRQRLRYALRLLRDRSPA

| Structure (SMILES) | GI50 (K562; K562, 72 h) | GI50 (A549; A549, 72 h) | GI50 (NCI-H1975; NCI-H1975, 72 h) | IC50 [1] | GI50 (MCF7; MCF7, 72 h) | GI50 (Huh-7; Huh-7, 72 h) | GI50 (HeLa) | IC50 [2] | GI50 (NCI-H1975) | GI50 (Huh-7) | GI50 (K562) | GI50 (A549) | GI50 (MCF7) |
| --- | --- | --- | --- | --- | --- | --- | --- | --- | --- | --- | --- | --- | --- |
| CC[C@@H]1C(=O)N(C)c2cnc(Nc3ccc(S(=O)(=O)NCC(C)C)cc3)nc2N1C1CCCC1 | 705 nM | 750 nM | 1040 nM | 21.8 nM | 403 nM | 411 nM | 561 nM | – | – | – | – | – | – |
| CCC1C(=O)N(C)c2cnc(Nc3ccc(S(=O)(=O)NC)cc3)nc2N1c1ccn(C)n1 (racemic) | 2890 nM | 12600 nM | 18800 nM | 71.5 nM | 3750 nM | 11900 nM | 2200 nM | – | – | – | – | – | – |
| CC[C@@H]1C(=O)N(C)c2cnc(Nc3ccc(S(=O)(=O)NC4CCCC4)cc3)nc2N1C1CCCC1 | 872 nM | 1150 nM | 1710 nM | 23.9 nM | 688 nM | 389 nM | 609 nM | – | – | – | – | – | – |
| CC[C@@H]1C(=O)N(C)c2cnc(Nc3ccc(S(=O)(=O)NCCCO)cc3)nc2N1C1CCCC1 | 331 nM | 437 nM | 2140 nM | 8.16 nM | 363 nM | 262 nM | 357 nM | – | – | – | – | – | – |
| CC[C@@H]1C(=O)N(C)c2cnc(-n3ccc4cc(C(=O)NC(C)C)ccc43)nc2N1C1CCCC1 | 786 nM | 1780 nM | 1840 nM | 17.4 nM | 1670 nM | 1660 nM | 292 nM | – | – | – | – | – | – |
| CC[C@@H]1C(=O)N(C)c2cnc(Nc3ccc(S(N)(=O)=O)cc3)nc2N1C1CCCC1 | 470 nM | 3390 nM | 5290 nM | 10.2 nM | 394 nM | 1300 nM | 317 nM | – | – | – | – | – | – |
| CCCNC(=O)c1ccc2c(ccn2-c2ncc3c(n2)N(C2CCCC2)[C@H](CC)C(=O)N3C)c1 | 395 nM | 1640 nM | 786 nM | 11.3 nM | 592 nM | 689 nM | 238 nM | – | – | – | – | – | – |
| CCNC(=O)c1ccc2c(ccn2-c2ncc3c(n2)N(C2CCCC2)[C@H](CC)C(=O)N3C)c1 | 428 nM | 1120 nM | 882 nM | 4.88 nM | 784 nM | 596 nM | 418 nM | – | – | – | – | – | – |
| CC[C@@H]1C(=O)N(C)c2cnc(-n3ccc4cc(C(=O)NCC(C)C)ccc43)nc2N1C1CCCC1 | 638 nM | 1730 nM | – | 18.6 nM | 953 nM | – | 3280 nM | – | inactive | inactive | – | – | – |
| CCC1C(=O)N(C)c2cnc(Nc3ccc(S(=O)(=O)NCCO)cc3)nc2N1c1ccn(C)n1 (racemic) | – | – | – | 478 nM | – | – | inactive | – | inactive | inactive | inactive | inactive | inactive |
| CCCCNS(=O)(=O)c1ccc(Nc2ncc3c(n2)N(C2CCCC2)[C@H](CC)C(=O)N3C)cc1 | 412 nM | 477 nM | 1610 nM | 19.9 nM | 459 nM | 225 nM | 451 nM | – | – | – | – | – | – |
| CCCNS(=O)(=O)c1ccc(Nc2ncc3c(n2)N(c2ccn(C)n2)C(CC)C(=O)N3C)cc1 (racemic) | 2260 nM | 15000 nM | 21700 nM | 190 nM | 3000 nM | 8880 nM | 2670 nM | – | – | – | – | – | – |
| CCC1C(=O)N(C)c2cnc(Nc3ccc(S(=O)(=O)NCCCO)cc3)nc2N1c1ccn(C)n1 (racemic) | 13400 nM | 48800 nM | 25800 nM | 192 nM | 21600 nM | – | 23700 nM | – | – | inactive | – | – | – |
| CCC1C(=O)N(C)c2cnc(-n3ccc4cc(C(=O)NC5CCCC5)ccc43)nc2N1c1ccn(C)n1 (racemic) | 31300 nM | 39500 nM | – | 90.9 nM | – | – | 27400 nM | – | inactive | inactive | – | – | inactive |
| CC[C@@H]1C(=O)N(C)c2cnc(Nc3ccc(S(=O)(=O)NC)cc3)nc2N1C1CCCC1 | 222 nM | 183 nM | 1410 nM | 3.4 nM | 151 nM | 99 nM | 148 nM | – | – | – | – | – | – |
| CCCCNC(=O)c1ccc2c(ccn2-c2ncc3c(n2)N(C2CCCC2)[C@H](CC)C(=O)N3C)c1 | 673 nM | 1160 nM | 990 nM | 16.5 nM | 634 nM | 683 nM | 346 nM | – | – | – | – | – | – |
| CC[C@@H]1C(=O)N(C)c2cnc(-n3ccc4cc(C(N)=O)ccc43)nc2N1C1CCCC1 | 1850 nM | 4350 nM | 3380 nM | 28.5 nM | 1830 nM | 3090 nM | 674 nM | – | – | – | – | – | – |
| CCCCNS(=O)(=O)c1ccc(Nc2ncc3c(n2)N(c2ccn(C)n2)C(CC)C(=O)N3C)cc1 (racemic) | 4240 nM | 10600 nM | 4120 nM | 191 nM | 5780 nM | 3750 nM | 4320 nM | – | – | – | – | – | – |
| CC[C@@H]1C(=O)N(C)c2cnc(Nc3ccc(S(=O)(=O)NCCO)cc3)nc2N1C1CCCC1 | 546 nM | 563 nM | 2100 nM | 7.86 nM | 344 nM | 278 nM | 459 nM | – | – | – | – | – | – |

The remaining compounds from weak to strong by GI50 (HeLa), led by results:

| GI50 (K562; K562, 72 h) | GI50 (A549; A549, 72 h) | GI50 (NCI-H1975; NCI-H1975, 72 h) | IC50 [1] | GI50 (MCF7; MCF7, 72 h) | GI50 (Huh-7; Huh-7, 72 h) | GI50 (HeLa) | IC50 [2] | GI50 (NCI-H1975) | GI50 (Huh-7) | GI50 (K562) | GI50 (A549) | GI50 (MCF7) | Structure (SMILES) |
| --- | --- | --- | --- | --- | --- | --- | --- | --- | --- | --- | --- | --- | --- |
| 6910 nM | 57500 nM | 28300 nM | – | 17200 nM | 4690 nM | 33900 nM | > 20000 nM | – | – | – | – | – | CC[C@@H]1C(=O)N(C)c2cnc(-n3ccc4ccccc43)nc2N1C1CCCC1 |
| – | – | – | 121 nM | 36600 nM | – | 12600 nM | – | inactive | inactive | inactive | inactive | – | CCC1C(=O)N(C)c2cnc(Nc3ccc(S(N)(=O)=O)cc3)nc2N1c1ccn(C)n1 (racemic) |
| 7300 nM | 31600 nM | 15000 nM | 311 nM | 8350 nM | 8520 nM | 5310 nM | – | – | – | – | – | – | CCC1C(=O)N(C)c2cnc(Nc3ccc(S(=O)(=O)NCC(C)C)cc3)nc2N1c1ccn(C)n1 (racemic) |
| 4180 nM | 4150 nM | 6000 nM | 54.4 nM | 5430 nM | 2790 nM | 5140 nM | – | – | – | – | – | – | CC[C@@H]1C(=O)N(C)c2cnc(Nc3ccc(S(=O)(=O)Nc4ccccc4)cc3)nc2N1C1CCCC1 |
| 705 nM | 2200 nM | 1370 nM | 8.6 nM | 1000 nM | 842 nM | 768 nM | – | – | – | – | – | – | CC[C@@H]1C(=O)N(C)c2cnc(-n3ccc4cc(C(=O)NC)ccc43)nc2N1C1CCCC1 |
| 548 nM | 563 nM | 2100 nM | 17.8 nM | 344 nM | 278 nM | 459 nM | – | – | – | – | – | – | CCCNS(=O)(=O)c1ccc(Nc2ncc3c(n2)N(C2CCCC2)[C@H](CC)C(=O)N3C)cc1 |
| 414 nM | 670 nM | 856 nM | 7.06 nM | 795 nM | 259 nM | 247 nM | > 20000 nM | – | – | – | – | – | CC[C@@H]1C(=O)N(C)c2cnc(-n3ccc4cc(C(=O)NC5CCCC5)ccc43)nc2N1C1CCCC1 |
| 68 nM | 57 nM | 230 nM | – | 67 nM | 28 nM | 34 nM | – | – | – | – | – | – | CC[C@@H]1C(=O)N(C)c2cnc(Nc3ccc(C(=O)NC4CCN(C)CC4)cc3OC)nc2N1C1CCCC1 [BI-2536] |

— ChEMBL document CHEMBL4138231 (Eur J Med Chem, 2018)
